# Laboratory results published in ChEMBL document CHEMBL1275601, “Striking species difference in the contribution of concentrative nucleoside transporter 2 to nucleoside uptake between mouse and rat hepatocytes” (Antimicrob Agents Chemother, 2010).
# The source made the active and inactive calls. The calls are words filed in the database; no cut-off is given here.
# Columns and labels:
# Format in all cases: cell-based
# Hepatocyte [1] = assay: Transport through CNT1 in mouse hepatocytes by oil filtration assay in presence of sodium ions in Kreb-henseleit buffer
# [2] = target: T1, Sodium/nucleoside cotransporter 1 (Rattus norvegicus) (UniProt Q62674); assay: Transport through CNT1 in rat hepatocytes by oil filtration assay in presence of sodium ions in Kreb-henseleit buffer; conditions: Hepatocyte
# T1 sequence (whole entry): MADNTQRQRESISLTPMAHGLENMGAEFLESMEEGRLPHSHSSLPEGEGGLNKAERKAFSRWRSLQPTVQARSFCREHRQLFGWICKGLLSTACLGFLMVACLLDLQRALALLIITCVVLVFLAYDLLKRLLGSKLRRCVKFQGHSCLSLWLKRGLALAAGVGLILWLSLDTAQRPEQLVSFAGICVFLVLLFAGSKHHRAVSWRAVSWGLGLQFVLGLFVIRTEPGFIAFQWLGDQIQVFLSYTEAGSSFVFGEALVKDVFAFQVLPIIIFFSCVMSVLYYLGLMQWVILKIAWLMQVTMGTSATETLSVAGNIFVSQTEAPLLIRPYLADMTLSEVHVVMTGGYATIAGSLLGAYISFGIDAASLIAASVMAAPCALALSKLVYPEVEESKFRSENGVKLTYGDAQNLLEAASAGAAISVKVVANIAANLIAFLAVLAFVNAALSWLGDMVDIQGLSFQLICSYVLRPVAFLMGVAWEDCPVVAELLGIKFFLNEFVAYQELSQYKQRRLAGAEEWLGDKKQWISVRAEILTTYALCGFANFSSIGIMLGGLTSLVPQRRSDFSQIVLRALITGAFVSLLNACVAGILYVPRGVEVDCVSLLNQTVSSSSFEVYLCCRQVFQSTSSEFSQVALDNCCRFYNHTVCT
# Hepatocyte [3] = assay: Transport through CNT3 in rat hepatocytes by oil filtration assay in presence of sodium ions in Kreb-henseleit buffer containing 100 uM NBMPR and 1 mM uridine
# [4] = target: T2, Sodium/nucleoside cotransporter 2 (Mus musculus) (UniProt O88627); assay: Transport through CNT2 in mouse hepatocytes by oil filtration assay pre-incubated with 20 ng/mL rotenone for 15 mins and 2 mM 2-deoxyglucose for 10 mins at 37 degC in presence of sodium ions in Kreb-henseleit buffer containing 100 nM NBMPR; conditions: Hepatocyte
# T2 sequence (whole entry): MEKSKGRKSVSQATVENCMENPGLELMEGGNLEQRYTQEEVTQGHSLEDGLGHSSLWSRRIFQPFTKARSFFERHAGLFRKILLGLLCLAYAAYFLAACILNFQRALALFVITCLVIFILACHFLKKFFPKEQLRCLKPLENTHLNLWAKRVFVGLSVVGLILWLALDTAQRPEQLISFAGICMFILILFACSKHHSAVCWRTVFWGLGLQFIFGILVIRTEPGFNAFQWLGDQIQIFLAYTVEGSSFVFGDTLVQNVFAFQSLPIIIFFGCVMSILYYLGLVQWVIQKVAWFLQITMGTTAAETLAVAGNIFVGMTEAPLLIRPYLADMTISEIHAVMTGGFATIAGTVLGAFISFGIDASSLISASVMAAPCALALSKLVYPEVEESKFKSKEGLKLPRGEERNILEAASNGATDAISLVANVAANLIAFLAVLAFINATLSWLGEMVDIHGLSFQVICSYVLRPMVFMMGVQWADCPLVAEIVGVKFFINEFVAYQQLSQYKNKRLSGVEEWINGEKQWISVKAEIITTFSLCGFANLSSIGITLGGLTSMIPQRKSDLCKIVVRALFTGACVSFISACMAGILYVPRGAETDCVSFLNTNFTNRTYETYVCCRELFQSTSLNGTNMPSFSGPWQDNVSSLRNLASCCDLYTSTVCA
# [5] = target: T3, Sodium/nucleoside cotransporter 2 (Rattus norvegicus) (UniProt Q62773); assay: Transport through CNT2 in rat hepatocytes by oil filtration assay pre-incubated with 20 ng/mL rotenone for 15 mins and 2 mM 2-deoxyglucose for 10 mins at 37 degC in presence of sodium ions in Kreb-henseleit buffer containing 100 nM NBMPR; conditions: Hepatocyte
# T3 sequence (whole entry): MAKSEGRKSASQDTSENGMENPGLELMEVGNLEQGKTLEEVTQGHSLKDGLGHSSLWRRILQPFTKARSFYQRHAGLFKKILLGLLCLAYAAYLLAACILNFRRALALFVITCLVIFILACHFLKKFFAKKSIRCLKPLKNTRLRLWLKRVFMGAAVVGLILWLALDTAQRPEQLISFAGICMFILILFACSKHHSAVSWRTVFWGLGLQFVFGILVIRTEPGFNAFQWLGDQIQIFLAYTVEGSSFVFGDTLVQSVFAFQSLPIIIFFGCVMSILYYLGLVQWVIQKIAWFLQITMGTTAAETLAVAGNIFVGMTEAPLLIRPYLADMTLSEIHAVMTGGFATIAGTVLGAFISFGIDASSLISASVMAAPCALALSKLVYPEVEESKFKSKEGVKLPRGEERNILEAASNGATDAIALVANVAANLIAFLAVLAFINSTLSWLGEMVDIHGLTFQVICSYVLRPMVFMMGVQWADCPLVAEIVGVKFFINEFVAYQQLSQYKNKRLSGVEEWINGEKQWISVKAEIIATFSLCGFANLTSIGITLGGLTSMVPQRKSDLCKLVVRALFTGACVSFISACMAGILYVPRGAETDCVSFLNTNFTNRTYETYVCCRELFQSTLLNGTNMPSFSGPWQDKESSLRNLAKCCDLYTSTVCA
# [6] = target: T2, Sodium/nucleoside cotransporter 2 (Mus musculus); assay: Transport through CNT2 in mouse hepatocytes by oil filtration assay pre-incubated with 20 ng/mL rotenone for 15 mins and 2 mM 2-deoxyglucose for 10 mins at 37 degC in Kreb-henseleit buffer; conditions: Hepatocyte
# [7] = target: T3, Sodium/nucleoside cotransporter 2 (Rattus norvegicus); assay: Transport through CNT2 in rat hepatocytes by oil filtration assay pre-incubated with 20 ng/mL rotenone for 15 mins and 2 mM 2-deoxyglucose for 10 mins at 37 degC in Kreb-henseleit buffer; conditions: Hepatocyte
SMILES,Activity (Hepatocyte [1]),Activity [2],Activity (Hepatocyte [3]),Activity [4],Activity [5],Activity [6],Activity [7]
Nc1ncnc2c1ncn2[C@@H]1O[C@H](CO)[C@@H](O)[C@H]1O,inactive,Active,inactive,,,,
NC(=O)c1ncn([C@@H]2O[C@H](CO)[C@@H](O)[C@H]2O)n1,inactive,Active,inactive,Active,Active,Active,Active
